From patent publication US20220273678A1 (priority 2020, published 2022)
“Also recorded” adds a separate entry of the source. Structures can show the parent of a compound that is named as a salt. Where two headings read alike, the source gives them in different places.

Legend:
[1] = system: IL-6, IL-10; type: cell-based, human
[2] = system: SARS-CoV-2; experiment: microbe, parasite or virus in culture; type: cell-based
[3] = system: Calu3 cells; experiment: XTT cell cytotoxicity assay in uninfected Calu3 cells; type: cell-based, human
Experimental: (§1) To measure cell viability to determine if there was any treatment-induced cytotoxicity, cells were plated and treated with drugs as described above. Cells were exposed to the same dilution series created for the in vitro efficacy studies. As above, vehicle-treated cells served as the 0% cytotoxicity control. After 24 h, cell viability was measured on a Synergy 2 Biotek microplate reader (Biotek Inc) via the XTT Cell Proliferation Assay Kit (ATCC® 30-1011K™) according to the manufacturer's protocol. Similar data were obtained in three independent experiments.

[4] = system: Nrf2, Keap1, HO-1; experiment: Nrf2, Keap1 and HO-1 protein levels in Calu3 cells, flow cytometry; type: cell-based, human; details: for HO-1 protein levels: Calu3, 10 μM DMF, 100-1000 nM Mito-MES, Mito-MES with DMF, 0.25 μM Brusatol, 10 μM 4F; for protein levels of Keap (Keap1) / protein levels of Nrf2: infected and uninfected Calu3
[5] = system: IL-6, IL-1β, IL-8, IL-10, TNF-α; type: cell-based, human; details: 0.25 μM brusatol; for release of IL-6 from infected cells: 10 μM DMF, 10-100 μM DMF+100-1000 nM Mito-MES
[6] = system: uninfected cells; experiment: XTT cell cytotoxicity assay in similarly treated uninfected cultures (Mito-TEMPO, 4F); type: cell-based; details: Mito-TEMPO 10-1000 nM
Experimental: as §1

[7] = system: icSARS-CoV-2-mNG; type: cell-based, SARS-CoV-2
[8] = system: icSARS-CoV-2-mNG; type: cell-based, SARS-CoV-2; remark: listed apart in the source
[9] = system: hACE2 HEK293T cells and ALI HAE cultures; details: 1000 nM

## COC1=C(OC)C(=O)C(C/C=C(\C)CC/C=C(\C)CC/C=C(\C)CC/C=C(\C)CC/C=C(\C)CC/C=C(\C)CC/C=C(\C)CC/C=C(\C)CC/C=C(\C)CCC=C(C)C)=C(C)C1=O [CoQ10, Coenzyme Q10]
[1]
  secretion / release of IL-6: reduced subsequent release of IL-6

## COC(=O)/C=C/C(=O)OC [DMF, dimethyl fumarate]
[2]; Calu3, 10 μM DMF pretreatment 24 h, alone or with 10-1000 nM Mito-MES
  release of progeny SARS-CoV-2 virus particles, TCID50 assay: had anti-SARS-CoV-2 activity; also recorded: reduction in subsequent release of progeny SARS-CoV-2 virus particles
[2]; DMF 10 μM, Mito-MES 100 nM, Mito-MES 100 nM+DMF 10 μM, […]
  Viral replication by flow cytometry at 48 hpi in Calu3 cells: 5.4%
[2]; DMF 100 μM, Mito-MES 100 nM+DMF 100 μM, control 9.3%
  Viral replication by flow cytometry at 48 hpi in Calu3 cells: 2.1%
[3]; 100 μM DMF, 24 h
  cytotoxicity, XTT cell cytotoxicity assay: cytotoxic
[4]
  HO-1 protein levels: increased protein levels of heme oxygenase-1 (HO-1)
  protein levels of Keap (Keap1): reduced protein levels of the endogenous Nrf2 inhibitor, Keap1; also recorded: reduced protein levels of Keap
  protein levels of Nrf2: did not impact protein levels of Nrf2
[5]
  release of IL-6 from infected cells: reduction in subsequent release of IL-6

## CC1(C)CC(NC(=O)C[P+](c2ccccc2)(c2ccccc2)c2ccccc2)CC(C)(C)N1[O] [Mito-TEMPO]
[6]
  cytotoxicity, XTT cell cytotoxicity assay: no observed cytotoxicity
[7]
  antiviral activity against fluorescent SARS-CoV-2: potent and similar antiviral activity
[8]
  antiviral activity against fluorescent SARS-CoV-2: potent and similar antiviral activity

## CCCCCCCCCC[P+](c1ccccc1)(c1ccccc1)c1ccccc1.[Br-] [dTPP]
[2]; Calu3, dTPP 1000 nM
  antiviral activity, viral replication by TCID50-assay: Antiviral activity was observed
[3]; uninfected Calu3, dTPP 1000 nM
  cytotoxicity, XTT assay: not cytotoxic
[1]
  secretion / release of IL-6: reduced subsequent release of IL-6
[9]
  cytotoxicity: not cytotoxic

## brusatol
[2]; 10 nM Mito-MES+10 μM DMF, 0.25 μM brusatol
  percent of infected Calu3 cells positive for the N protein, flow cytometry (data not shown): directly enhanced SARS-CoV-2 infection
[2]; Calu3, 0.25 μM brusatol 24 h
  effect of brusatol on the antiviral effect of DMF and Mito-MES: inhibited the antiviral effect of both DMF alone and Mito-MES
[2]; Calu3, 0.25 μM brusatol pretreatment
  release of progeny virus / SARS-CoV-2 replication, TCID50: significantly increased SARS-CoV2 replication; also recorded: significantly increased subsequent release of progeny SARS-CoV-2 virus particles
[2]; Mito-MES 1000 nM, Brusatol 250 nM, Mito-MES 1000 nM+Brusatol 250 nM
  Viral replication by flow cytometry at 48 hpi in Calu3 cells: 39.9%
[4]
  HO-1 protein levels: increased the HO-1 protein levels
  protein levels of Keap (Keap1): increased protein levels of Keap
  protein levels of Nrf2: reduced protein levels of Nrf2
[5]; Calu3
  effect of brusatol on the anti-inflammatory effect of Mito-MES (IL-6): inhibited the anti-inflammatory effect of Mito-MES
[5]
  release of IL-6 from infected cells: significantly increased subsequent release of IL-6
